# According to patent publication US20170368018A1, “USE OF ELLAGIC ACID DIHYDRATE IN PHARMACEUTICAL FORMULATIONS TO REGULATE BLOOD GLUCOSE LEVELS” (HALO LIFE SCIENCE, LLC, priority 2014, published 2017):
# “Also recorded” adds a separate entry of the source.
# Tests used:
# [1] = Estimated saturation in 100% DMSO; assay type: physicochemical
# Description: General Procedure. For Examples 2 through 7, all test compounds of interest were initially dissolved in 100% DMSO. Estimated saturation occurred at approximately 4 mM for ellagic acid dihydrate. The saturated solution was diluted 1:10 in 1× PBS; creating a 100× stock solution of 400 μM ellagic acid dihydrate. Working concentrations (1×), 4 μM, and more dilute concentrations of ellagic acid dihydrate were created by 1:10 dilutions into 0.1% DMSO. The resulting six dilutions ranged from 4 μM to 0.04 nM. Dose curves were analyzed using either Harmony software on the Operetta (Perkin Elmer) or Excel (Microsoft) for flow cytometry, which was performed on a BD Accuri (BD Biosciences).
# [2] = system: mouse myoblast C2C12 cells; test: Glucose uptake, 2-NBDG labeling, flow cytometry, C2C12; assay type: cell-based
# Description: Cellular assays were performed using mouse myoblast C2C12 cells and MEF cells. […] Increased glucose uptake was indicated as increasing signal of 2-NBDG ([…]) in cells. Glucose uptake assays were carried out in a final incubation volume of 50 μl consisting of, 2-NBDG), (100 μM) in 1× Phosphate Buffered Saline w/Ca+, Mg+ (PBS++). The same buffer was used for washing cells. Insulin was used as a positive control. All testing compounds were prepared in 10% DMSO and diluted 1:100 for a final concentration of 0.1% DMSO (vehicle). Cells were culture to 70-90% confluence and then washed twice with PBS++. Cells were incubated for 30 minutes at 37° C. in PBS++. Nuclear stain, HCS CellMask stain (blue, Invitrogen), and/or testing compounds (ellagic acid dihydrate, insulin, or vehicle) were added. Cells were incubated for 30 min at 37° C. Cells were washed twice with PBS++and incubated with 2-NBDG for 10 minutes. Cells were washed thrice with PBS++and then imaged in PBS++. Alternatively, the final PBS wash was removed and cells were incubated with Accutase (Invitrogen) for 10 min at 37° C., neutralized with 10% FBS in 1× PBS, and analyzed by flow cytometry. An additional experiment was performed to measure glucose uptake in C2C12 cells exposed to metformin, insulin and ellagic acid dihydrate 2 (batch 2). FIG. 5C.
# [3] = system: GLUT4-GFP in mouse myoblast C2C12 cells; test: Localization of glucose transporter GLUT4-GFP, time-lapse confocal microscopy; assay type: cell-based; details: C2C12, 4000 nM
# Description: Induction of glucose transporter, GLUT-4, in ellagic acid dihydrate treated cell cultures was studied. Cellular assays were performed using mouse myoblast C2C12 cells. The cells were infected with a fusion glucose transporter 4 green fluorescent protein (GLUT4-GFP). This protein allows the visualization of GLUT4 by imaging the GFP under fluorescent time-lapse microscopy. Frames were compiled to produce time-lapse images of cellular changes with no treatment or treatment with insulin. The localization of glucose transporter (GLUT4-GFP) was performed in final incubation volume of 505 μL, consisting of 500 μL of Hank's Buffer (Invitrogen) and 5 μl of tested compounds. Insulin was used as positive controls and vehicle (0.1% DMSO) as the negative control. All test compounds were prepared in 10% DMSO and diluted 1:100 for a final concentration of 0.1% DMSO (vehicle). The cells were rinsed in Hank's Buffer thrice and then incubated in Hank's Buffer at 37° C. for one hour. The test compounds were added (ellagic acid dihydrate, insulin, or vehicle) and the cells were imaged using laser-confocal microscopy (Leica TCS SP5 X) with FITC fluorescent filters to determine changes in GLUT4-GFP localization. Time-lapse images (TIF) were collected and post-processed using Image-J (NIH) for video construction.
# [4] = system: p44/42 MAPK / Phos p44/42 MAPK in C2C12 cells; test: p44/42 MAPK:phos p44/42 MAPK ratio by immunocytochemistry, high-content imaging; assay type: cell-based, mouse; details: C2C12, treated 30 minutes, 400 nM, 0.04 nM, FIG. 9
# Description: Stimulation of AKT pathways and MAPK pathways in ellagic acid dihydrate, metformin, and insulin treated cell cultures was performed. Insulin stimulates glucose uptake into cells by increasing GLUT4 activation, and AKT, specifically phos-AKT, signaling alters GLUT4 translocation. […] Cellular assays were performed using mouse myoblast C2C12 cells. Relative protein levels of AKT:phos AKT and p44/42 MAPK:phos p44/42 MAPK were determined.
# Serum starved cells (1 hr) were treated for 30 minutes with each of the tested compounds. Ratios of phosphorylated to non-phosphorylated proteins were determined using immunocytochemistry labeling (anti-AKT, anti-Phos AKT; or anti-p44/42 MAPK, anti-Phos p44/42 MAPK) on a high-content imaging system (Operetta, Perkin Elmer) using the fluorescent signal of anti-rabbit Alexa 647. Increased phosphorylation is indicated as decrease in signal of AKT:Phos AKT ratio (log2 scale) and p44/42 MAPK:Phos p44/42 MAPK ratio (log2 scale) relative to vehicle treated cells.
smiles,measurement,setting,value
O.O.O=c1oc2c(O)c(O)cc3c(=O)oc4c(O)c(O)cc1c4c23 [ellagic acid dihydrate],Estimated saturation,[1],approximately 4 mM
same,increase in glucose uptake in myoblasts relative to fibroblasts,"[2]; C2C12 (FIGS. 5A, 5B) versus MEFs (FIGS. 4A, 4B)",~4 ×
same,increase in glucose uptake compared with metformin,"[2]; C2C12, 4000 nm, FIG. 5C (batch 2)",greater increase in glucose uptake than metformin
same,dose effect for increasing glucose uptake,"[2]; C2C12, flow cytometry, 4 μM-0.04 nM",showed a dose effect
same,glucose uptake (2-NBDG signal) relative to vehicle,"[2]; C2C12, flow cytometry, FIG. 5A",significantly greater than vehicle treated
same,glucose uptake relative to insulin,"[2]; myoblasts, at most concentrations tested, significant at 4 nM-4 μM, dihydrate",significantly more glucose uptake relative to insulin; also recorded: exceeded the uptake induced by insulin
same,GLUT4-GFP around the cell nucleus,[3],decrease in nuclear GLUT4-GFP
same,ruffling of filopodia at the surface of the cell,[3],rapid ruffling of filopodia
same,time course of GLUT4-GFP and membrane changes compared with insulin,[3],slightly delayed
same,p44/42 MAPK:Phos p44/42 MAPK ratio relative to vehicle treated cells,[4],increase in p44/42 MAPK
